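Test compounds were applied to cells in 96-well plates for 48 hours at 5 doses. Abbreviation: GI50, concentration required for 50% inhibition of growth. TGI: total growth inhibition.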
Legend:
Test in all cases: NCI anticancer screen, dose series, 48 h
HCT-15 colon = system: HCT-15 colon
HL-60(TB) leukemia = system: HL-60(TB) leukemia
HOP-62 NSCLC = system: HOP-62 NSCLC
KM12 colon = system: KM12 colon
NCI-H23 lung = system: NCI-H23 lung
NCI-H522 lung = system: NCI-H522 lung
OVCAR-5 ovarian = system: OVCAR-5 ovarian
SK-MEL-28 melanoma = system: SK-MEL-28 melanoma
SR leukemia = system: SR leukemia
HOP-92 NSCLC = system: HOP-92 NSCLC

SMILES | TGI (HCT-15 colon) [µM] | TGI (HL-60(TB) leukemia) | TGI (HOP-62 NSCLC) [µM] | TGI (KM12 colon) [µM] | TGI (NCI-H23 lung) [µM] | TGI (NCI-H522 lung) | TGI (OVCAR-5 ovarian) [µM] | TGI (SK-MEL-28 melanoma) [µM] | TGI (SR leukemia) | TGI (HOP-92 NSCLC) [µM] | GI50 (HCT-15 colon) | GI50 (HOP-62 NSCLC) [µM] | GI50 (HOP-92 NSCLC) [µM] | GI50 (KM12 colon) | GI50 (NCI-H23 lung) | GI50 (NCI-H522 lung) | GI50 (OVCAR-5 ovarian) | GI50 (SK-MEL-28 melanoma) | GI50 (SR leukemia) | GI50 (HL-60(TB) leukemia)
COc1cc(C(=O)N2CCc3c([nH]c4c([N+](=O)[O-])c(OC)ccc34)C2C)cc(OC)c1OC (stereo not drawn) | > 100 | > 100 µM | > 100 | > 100 | > 100 | > 100 µM | > 100 | > 100 | > 100 µM |  |  |  |  |  |  |  |  |  |  | 
Cc1cccc(N=C2NC(=O)C(CC(=O)Nc3cccc(C)c3C)S2)c1 (stereo not drawn) |  | > 100 µM | > 100 | > 100 | > 100 |  | > 100 | > 100 |  | > 100 |  |  |  |  |  |  |  |  |  | 
CC(O)CC(O)(C(F)(F)F)C(F)(F)F (stereo not drawn) | > 10 | > 10 µM | > 10 | > 10 | > 10 | > 10 µM |  | > 10 | > 10 µM |  |  |  |  |  |  |  |  |  |  | 
O=C(O)CN(c1ccccc1)S(=O)(=O)c1ccc([N+](=O)[O-])cc1 | > 100 | > 100 µM |  | > 100 | > 100 | > 100 µM | > 100 |  |  | > 100 |  |  |  |  |  |  |  |  |  | 
Cc1cccc(C(C)C)c1NC(=O)C(=O)C(C(=O)c1ccccc1F)C1OC(=O)c2ccccc21 (stereo not drawn) | 57.3 |  | 35.8 | 50 | 40.6 | 33.6 µM | 99.9 | 53.7 |  | 48.2 |  |  |  |  |  |  |  |  |  | 
N#CC(C(=O)CCC(=O)Nc1cccc(C(F)(F)F)c1)c1ccc(Cl)cc1 (stereo not drawn) | > 100 | > 100 µM | > 100 | > 100 | > 100 | > 100 µM | > 100 |  |  | > 100 |  |  |  |  |  |  |  |  |  | 
COc1cc(C2C(C(=O)Nc3cc(F)c(F)cc3F)=C(C)NC(C)=C2C(=O)Nc2cc(F)c(F)cc2F)ccc1O |  | 40.7 µM | 97.9 | 35.8 | 52.8 | 36.3 µM | 59.9 | > 100 |  | 18.4 |  |  |  |  |  |  |  |  |  | 
CC(=O)OC1C2CCC1C1C2C2(Cl)C(Cl)=C(Cl)C1(Cl)C2(Cl)Cl (stereo not drawn) |  |  | 29 | 27.6 | 25.8 | 25 µM | 23.1 | 34.3 | 24.6 µM | 23.3 |  |  |  |  |  |  |  |  |  | 
CC1=C(c2cc(C(=O)Nc3ccc(Cl)cc3)nc(=S)[nH]2)Sc2ccccc2N1 | > 100 | > 100 µM | > 100 | > 100 | > 100 | > 100 µM | > 100 | > 100 |  | > 100 |  |  |  |  |  |  |  |  |  | 
COC(=O)/C(=C\c1ccc(N(CCC#N)CCC#N)cc1)NC(=O)c1cc([N+](=O)[O-])ccc1Cl | > 100 |  | > 100 | > 100 | > 100 | > 100 µM | > 100 | > 100 | 81.5 µM |  |  |  |  |  |  |  |  |  |  | 
CC(C)(C)OC(=O)N1N=NC2C1C1CC(OCc3ccccc3)(OCc3ccccc3)C2O1 (stereo not drawn) | > 100 | 31.9 µM | > 100 | > 100 | 49.2 |  | > 100 | 91.3 |  | > 100 |  |  |  |  |  |  |  |  |  | 
CC(C(=O)n1c2ccccc2c2ccccc21)N(c1ccccc1)c1ccccc1 (stereo not drawn) | 32.8 | 20.6 µM | 32 |  | 34.6 | 6.48 µM | 33.6 | 34.4 | 27.7 µM |  |  |  |  |  |  |  |  |  |  | 
Cc1cc(C(C)(C)C)cc(Cc2cc(C(C)(C)C)cc(Cc3cc(C(C)(C)C)cc(C)c3O)c2O)c1O | 24.3 | 12.5 µM | 28.9 | 21.4 | 21.7 | 13.2 µM | 31.3 |  |  | 10.5 |  |  |  |  |  |  |  |  |  | 
CCOC(=O)Cn1c(=O)n(C)c(=O)c2c1ncn2Cc1ccccc1 | > 100 |  | > 100 | > 100 | > 100 | > 100 µM | > 100 | > 100 | > 100 µM | > 100 |  |  |  |  |  |  |  |  |  | 
Cc1cc(C)n(-c2nnc3n2N=C(c2ccc(-c4ccccc4)cc2)CS3)n1 | > 100 |  | > 100 | > 100 | > 100 | 12.9 µM | > 100 | > 100 | > 100 µM | 5.13 | 3.51 µM | 6.17 | 1.38 | 3.49 µM | 4.79 µM | 2.95 µM | 5.3 µM | 3.33 µM | 3.06 µM | 
CO/N=C(/C)c1cccc(Nc2cc(-c3ccccc3)nc3ccc(OC)cc23)c1 | 41.1 |  | 6.17 |  | 27.4 | > 100 µM | 37.3 | 66.8 |  | 8.55 | 14.9 µM | 2.37 | 2.55 |  | 6.08 µM | 17.8 µM | 15.3 µM | 28.6 µM |  | 
COC(=O)c1cc(/C=C/c2ccc(S(N)(=O)=O)cc2)ccc1O | > 100 | > 100 µM | > 100 | > 100 | > 100 | 69.6 µM | > 100 | > 100 |  | > 100 | 27 µM | 41.7 | 25.7 | 24 µM | > 100 µM | 20.2 µM | 59.2 µM | 95.5 µM |  | > 100 µM
Clc1cc(Cl)cc(Nc2ccc3cc(OCCCN4CCOCC4)ccc3n2)c1 | 4.15 | 5.96 µM |  | 5.4 |  | 5.22 µM |  |  |  | 5.01 | 1.47 µM |  | 1.63 | 2.23 µM |  | 2.08 µM |  |  |  | 2.57 µM
c1ccc(CSc2nc3ccccc3nc2-c2cccs2)cc1 | > 100 | > 100 µM | > 100 | > 100 | > 100 | > 100 µM | > 100 | > 100 |  | > 100 |  |  |  |  |  |  |  |  |  | 
Cc1ccc(Nc2nnc(-c3ccc4c(c3)OCO4)o2)c(C)c1 | > 100 |  | > 100 | > 100 | > 100 | > 100 µM | > 100 | > 100 | > 100 µM | > 100 |  |  |  |  |  |  |  |  |  | 
O=C1C(=O)N(c2cc(Cl)ccc2Cl)C(=O)C(=O)C1c1nc2ccccc2o1 | > 100 | > 100 µM | > 100 | > 31.6 | > 100 | > 100 µM | > 100 | > 100 |  | > 100 |  |  |  |  |  |  |  |  |  | 
COC1=C(Br)C(=O)c2nc(C)ccc2C1=O | 27.7 |  | > 60.3 | 31.7 | 27 | 15.8 µM | 34.7 | 33.1 | 6.79 µM | 15.5 |  |  |  |  |  |  |  |  |  | 
O=C1C(Cl)=C(Nc2ccccc2O)C(=O)N1Cc1ccccc1 | 39.9 |  | 32.6 | 36.2 | 31.7 | 97.2 µM | 32.7 | 55.4 | > 100 µM | 48.3 | 19.5 µM | 18.5 | 21.4 | 17.8 µM | 17.9 µM | 29.1 µM | 18.5 µM | 25.1 µM | 51.7 µM | 
CCN(CC)c1cc2oc3cc(N)cc(=N)c-3nc2cc1C | > 100 |  | 9.26 | 29.8 | 17.9 | 6.05 µM | 7.4 | 27 |  | 79.7 | 3.14 µM | 2.91 | 20.2 | 3.93 µM | 2.11 µM | 2.31 µM | 2.82 µM | 5.7 µM |  | 
N.N.NCCCCCCCCCN.O=C([O-])CC(=O)[O-].O=C([O-])CC(=O)[O-].[Pt+4].[Pt+4] | > 100 | > 100 µM | > 100 | > 100 | > 100 | > 100 µM | > 100 | > 100 |  | > 100 | > 100 µM | > 100 | > 100 | > 100 µM | > 100 µM | 67.5 µM | > 100 µM | 87.5 µM |  | 13.4 µM
Nc1ccc2[nH]cc(CCC(=O)O)c2c1 | > 100 | 76.5 µM | > 100 | > 100 | > 100 | > 100 µM | > 100 | > 100 |  |  |  |  |  |  |  |  |  |  |  | 
CN(C)CCSc1nccc(-c2cc3ccccc3s2)n1 | 37.6 |  | 52.7 | 48.2 |  | 36.7 µM | 82.4 | 40.9 | 63.4 µM | 33.5 |  |  |  |  |  |  |  |  |  | 
C=CCN1CC2CON(C(=O)C(OC)(c3ccccc3)C(F)(F)F)C2C1C(C)C (stereo not drawn) |  | 23.3 µg/mL |  |  |  | 78.8 µg/mL |  |  | 65.1 µg/mL |  | 35.6 µg/mL |  |  | 36.2 µg/mL | 37.4 µg/mL | 27.5 µg/mL | 32 µg/mL | 52.9 µg/mL | 11.1 µg/mL | 6.09 µg/mL
CC1CN1c1c(C(=O)/C=C/c2ccc(Cl)cc2)c(-c2ccccc2)nn(C)c1=O (stereo not drawn) | 3.55 | 5.22 µM | 7.66 | > 10 | 6.97 | 5.99 µM | > 10 | > 10 |  | > 10 |  |  |  |  |  |  |  |  |  | 
O=C(CSC(c1ccccc1)c1ccccc1)N/N=C/c1ccco1 | 4.38 |  | 3.84 | 15.5 | 4.46 | 4.49 µM | 5.24 | 50.7 |  | 2.97 | 2.12 µM | 1.84 | 1.44 | 2.03 µM | 1.6 µM | 1.4 µM | 1.97 µM | 20.8 µM |  | 

Source: PubChem BioAssay (NCI)
